Data taken from patent publication US11708562B2, “Differentiation of human embryonic stem cells” (Janssen Biotech, Inc., priority 2006, dated 2023).

Key:
[1] = test system: human embryonic stem cell line H7; assay: FACS protein expression with time following activin A treatment (Table IIB); type: cell-based; conditions: AA 100 ng/ml
Procedure: (§1) The level of expression of definitive endoderm markers was examined by PCR (FIGS. 1A and 1B), FACS (results summarized in Table I), and immunohistochemistry (FIGS. 2A, 2B and 2C).
Adhered cells were removed from culture plates by five-minute incubation with TrypLE™ Express solution (Invitrogen, CA). Released cells were resuspended in human embryonic stem cell culture medium and recovered by centrifugation, followed by washing and resuspending the cells in a staining buffer consisting of 2% BSA, 0.05% sodium azide in PBS (Sigma, MO). As appropriate, the cells were Fc-receptor blocked for 15 minutes using a 0.1% γ-globulin (Sigma) solution. […] Controls included appropriate isotype matched antibodies, unstained cells, and cells stained only with secondary conjugated antibody. All incubations with antibodies were performed for 30 mins at 4° C. after which the cells were washed with the staining buffer. Samples that were stained with unconjugated primary antibodies were incubated for an additional 30 mins at 4° C. with secondary conjugated PE or -APC labeled antibodies. See Table I for a list of secondary antibodies used. Washed cells were pelleted and resuspended in the staining buffer, and the cell surface molecules were identified using a FACS Array (BD Biosciences) instrument, collecting at least 10,000 events.

H9 cultures = assay: Definitive endoderm on varying concentrations of […] with Wnt-3a (real-time PCR); type: cell-based, human; conditions: low serum, 100 ng/ml activin A and 20 ng/ml Wnt-3a
Procedure: H9 cells were cultured on plates coated with regular […] at a 1:60 to 1:10 dilution. The plates were coated with […] for 1 hr at room temperature.

[2] = test system: human embryonic stem cell line H9; assay: PCR of definitive endoderm and other lineage markers after activin A, cells on mouse embryonic fibroblasts; type: cell-based; conditions: 100 ng/ml activin A
Text: as §1
Cells were harvested at the time points indicated in FIGS. 3A, 3B, 3C and 3D and assayed by PCR for the expression of genes shown (FIGS. 3A, 3B, 3C, 3D, 4A, 4B, 5A and 5B).
RNA samples were purified by binding to a silica-gel membrane (Rneasy Mini Kit, Qiagen, CA) in the presence of an ethanol-containing, high-salt buffer followed by washing to remove contaminants. The RNA was further purified using a TURBO DNA-free kit (Ambion, INC), and high-quality RNA was then eluted in water. Yield and purity were assessed by A260 and A280 readings on a spectrophotometer. cDNA copies were made from purified RNA using an ABI (ABI, CA) high capacity cDNA archive kit.
Final data were expressed relative to a calibrator sample.

Activin A: a member of the TGFβ superfamily; growth factor (R&D Systems) used to differentiate human embryonic stem cells
CXCR4+ C-Kit+ cells (FACS) ([1]; 1-day): 2.97%
CXCR4+ CD9+ cells (FACS) ([1]; 1-day): 8.13%
CXCR4+ EPCAM+ cells (FACS) ([1]; 1-day): 14.58%
CXCR4+ cells (FACS) ([1]; 1-day): 6%
CXCR4+ C-Kit+ cells (FACS) ([1]; 3-day): 31.56%
CXCR4+ CD9+ cells (FACS) ([1]; 3-day): 24.11%
CXCR4+ EPCAM+ cells (FACS) ([1]; 3-day): 36.67%
CXCR4+ cells (FACS) ([1]; 3-day): 38%
CXCR4+ C-Kit+ cells (FACS) ([1]; 5-day): 55.21%
CXCR4+ CD9+ cells (FACS) ([1]; 5-day): 2.1%
CXCR4+ EPCAM+ cells (FACS) ([1]; 5-day): 54.5%
CXCR4+ cells (FACS) ([1]; 5-day): 65.5%
expression of CXCR4, GATA4, Goosecoid, HNF-3beta, and SOX-17 genes (H9 cultures): led to the expression
anterior endoderm markers Cerberus, Otx-1 and Hex genes [2]: significant up regulation
expression of extraembryonic endoderm markers Sox7 and AFP ([2]; up to seven days): time-dependent decrease
